Results published in the NIST ThermoML archive (doi:10.1021/je4008052).
Where “and” joins values, the source holds several entries; their conditions need not be identical. Equal entries are not always repeated. ± gives the expanded uncertainty stated by the source.

Details: Liquid, Gas chromatography

Row | SMILES | vapor or sublimation pressure (298.15 K) | vapor or sublimation pressure (308.15 K) | vapor or sublimation pressure (318.15 K) | vapor or sublimation pressure (328.15 K) | vapor or sublimation pressure (358.15 K) | vapor or sublimation pressure (368.15 K) | vapor or sublimation pressure (378.15 K) | vapor or sublimation pressure (388.15 K) | vapor or sublimation pressure (398.15 K) | vapor or sublimation pressure (408.15 K) | vapor or sublimation pressure (418.15 K) | vapor or sublimation pressure (428.15 K) | vapor or sublimation pressure (438.15 K) | vapor or sublimation pressure (448.15 K) | vapor or sublimation pressure (458.15 K) | vapor or sublimation pressure (468.15 K) | vapor or sublimation pressure (478.15 K) | vapor or sublimation pressure (488.15 K) | vapor or sublimation pressure (498.15 K) | vapor or sublimation pressure (508.15 K) | further results
1 | CCCCCCCC/C=C\CCCCCCCCCCCCC [(Z)-tricos-9-ene] | 1.146e-07 kPa and 1.205e-07 kPa | 5.055e-07 kPa and 5.324e-07 kPa | 1.987e-06 kPa and 2.096e-06 kPa | 7.042e-06 kPa and 7.434e-06 kPa | 0.0001951 ± 0.0002 kPa and 0.0001844 ± 0.0002 kPa | 0.0004985 ± 0.0002 kPa and 0.0004708 ± 0.0002 kPa | 0.001195 ± 0.00022 kPa and 0.001128 ± 0.00021 kPa | 0.0027 ± 0.00028 kPa and 0.002546 ± 0.00027 kPa | 0.00545 ± 0.00043 kPa and 0.005782 ± 0.00046 kPa | 0.01111 ± 0.00086 kPa and 0.01179 ± 0.00091 kPa | 0.02163 ± 0.0017 kPa and 0.02297 ± 0.0018 kPa | 0.04041 ± 0.0031 kPa and 0.04294 ± 0.0033 kPa | 0.07269 ± 0.0056 kPa and 0.07727 ± 0.006 kPa | 0.1262 ± 0.0098 kPa and 0.1343 ± 0.01 kPa | 0.2121 ± 0.016 kPa and 0.2258 ± 0.017 kPa | 0.346 ± 0.027 kPa and 0.3684 ± 0.029 kPa | 0.5489 ± 0.043 kPa and 0.5848 ± 0.045 kPa | 0.8487 ± 0.066 kPa and 0.9046 ± 0.07 kPa | 1.281 ± 0.099 kPa and 1.366 ± 0.11 kPa | 1.891 ± 0.15 kPa and 2.018 ± 0.16 kPa | vapor or sublimation pressure (518.15 K): 2.735 ± 0.21 kPa and 2.92 ± 0.23 kPa; vapor or sublimation pressure (528.15 K): 3.88 ± 0.3 kPa and 4.144 ± 0.32 kPa; vapor or sublimation pressure (538.15 K): 5.406 ± 0.42 kPa and 5.777 ± 0.45 kPa; vapor or sublimation pressure (548.15 K): 7.406 ± 0.57 kPa and 7.919 ± 0.61 kPa; vapor or sublimation pressure (558.15 K): 9.989 ± 0.77 kPa and 10.69 ± 0.83 kPa; vapor or sublimation pressure (568.15 K): 13.28 ± 1 kPa and 14.21 ± 1.1 kPa; vapor or sublimation pressure (578.15 K): 17.41 ± 1.4 kPa and 18.64 ± 1.4 kPa; vapor or sublimation pressure (588.15 K): 22.53 ± 1.8 kPa and 24.14 ± 1.9 kPa; vapor or sublimation pressure (598.15 K): 28.81 ± 2.2 kPa and 30.88 ± 2.4 kPa; vapor or sublimation pressure (608.15 K): 36.42 ± 2.8 kPa and 39.06 ± 3 kPa; vapor or sublimation pressure (618.15 K): 45.55 ± 3.5 kPa and 48.88 ± 3.8 kPa; vapor or sublimation pressure (628.15 K): 56.41 ± 4.4 kPa and 60.56 ± 4.7 kPa; vapor or sublimation pressure (638.15 K): 69.19 ± 5.4 kPa and 74.32 ± 5.8 kPa; vapor or sublimation pressure (648.15 K): 84.12 ± 6.5 kPa and 90.4 ± 7 kPa; vapor or sublimation pressure (656 K): 104.81 ± 8.1 kPa; vapor or sublimation pressure (658.15 K): 101.4 ± 7.9 kPa
2 | CCCCCCCC/C=C/CCCCCCCCCCCCC [(E)-9-tricosene] | 1.041e-07 kPa and 1.013e-07 kPa | 4.621e-07 kPa and 4.52e-07 kPa | 1.828e-06 kPa and 1.795e-06 kPa | 6.514e-06 kPa and 6.421e-06 kPa | 0.0001722 ± 0.0002 kPa and 0.000173 ± 0.0002 kPa | 0.0004428 ± 0.0002 kPa and 0.0004438 ± 0.0002 kPa | 0.001067 ± 0.00021 kPa | 0.002425 ± 0.00026 kPa and 0.002419 ± 0.00026 kPa | 0.005195 ± 0.00042 kPa and 0.00522 ± 0.00042 kPa | 0.01062 ± 0.00082 kPa and 0.01069 ± 0.00083 kPa | 0.02075 ± 0.0016 kPa and 0.02093 ± 0.0016 kPa | 0.0389 ± 0.003 kPa and 0.0393 ± 0.003 kPa | 0.07017 ± 0.0054 kPa and 0.07101 ± 0.0055 kPa | 0.1222 ± 0.0095 kPa and 0.1238 ± 0.0096 kPa | 0.2059 ± 0.016 kPa and 0.209 ± 0.016 kPa | 0.3368 ± 0.026 kPa and 0.3423 ± 0.027 kPa | 0.5356 ± 0.042 kPa and 0.5451 ± 0.042 kPa | 0.83 ± 0.064 kPa and 0.8458 ± 0.066 kPa | 1.256 ± 0.097 kPa and 1.281 ± 0.099 kPa | 1.858 ± 0.14 kPa and 1.898 ± 0.15 kPa | vapor or sublimation pressure (338.15 K): 2.089e-05 kPa and 2.112e-05 kPa; vapor or sublimation pressure (518.15 K): 2.693 ± 0.21 kPa and 2.753 ± 0.21 kPa; vapor or sublimation pressure (528.15 K): 3.828 ± 0.3 kPa and 3.918 ± 0.3 kPa; vapor or sublimation pressure (538.15 K): 5.344 ± 0.41 kPa and 5.475 ± 0.42 kPa; vapor or sublimation pressure (548.15 K): 7.336 ± 0.57 kPa and 7.523 ± 0.58 kPa; vapor or sublimation pressure (558.15 K): 9.914 ± 0.77 kPa and 10.18 ± 0.79 kPa; vapor or sublimation pressure (568.15 K): 13.2 ± 1 kPa and 13.56 ± 1.1 kPa; vapor or sublimation pressure (578.15 K): 17.34 ± 1.3 kPa and 17.82 ± 1.4 kPa; vapor or sublimation pressure (588.15 K): 22.48 ± 1.7 kPa and 23.12 ± 1.8 kPa; vapor or sublimation pressure (598.15 K): 28.79 ± 2.2 kPa and 29.64 ± 2.3 kPa; vapor or sublimation pressure (608.15 K): 36.46 ± 2.8 kPa and 37.56 ± 2.9 kPa; vapor or sublimation pressure (618.15 K): 45.67 ± 3.5 kPa and 47.09 ± 3.6 kPa; vapor or sublimation pressure (628.15 K): 56.64 ± 4.4 kPa and 58.44 ± 4.5 kPa; vapor or sublimation pressure (638.15 K): 69.59 ± 5.4 kPa and 71.83 ± 5.6 kPa; vapor or sublimation pressure (648.15 K): 84.72 ± 6.6 kPa and 87.52 ± 6.8 kPa; vapor or sublimation pressure (655 K): 99.7 ± 7.7 kPa; vapor or sublimation pressure (656 K): 98.29 ± 7.6 kPa
